From patent US20190099414A1, “THERAPEUTIC COMPOSITIONS AND METHODS” (UNIVERSITY OF IOWA RESEARCH FOUNDATION, priority 2015, published 2019)

Experiments:
[1] = system: rabbit joint capsule fibroblasts; assay: Collagen gel compaction assay; type: cell-based; settings: collagen gel seeded with rabbit joint capsule fibroblasts; final blebbistatin concentration 50 μg/mL, treated 24 hours, imaged up to 48 hours
Method: The effect of blebbistatin on rabbit joint capsule fibroblasts (RJCF) was analyzed using a collagen gel compaction assay. RJCFs between passage 4 and 9 were trypsinized using 0.1% trypsin/EDTA for 5 minutes at 37° C. and then the added trypsin was neutralized using DMEM containing 10% FBS. The cell suspension was centrifuged at 230 g for 5 minutes and resuspended in a desired volume of 10% FBS containing DMEM. The collagen gels loaded with RJCFs were prepared by mixing 10×PBS containing phenol red, 1N NaOH, rat tail collagen-I, and the cell suspension to give a final yield of 1×10^6 cells/mL and 2 mg/mL collagen. 500 μL of the collagen gel mixture was added to each well in a 24 well plate and allowed to gelate for 30 minutes in an incubator. After 30 minutes 500 μL of DMEM containing 10% FBS and 50 μg/mL ascorbic acid was added to each well and incubated for 24 hours. After 24 hours, 2.5 mg of blank and blebbistatin loaded nanoparticles dispersed in 50 μL of DMEM or 50 μL of pure drug dissolved in DMSO (1 mg/mL) or 50 μL DMSO or 50 μL PBS were added to each gel so that the final blebbistatin concentration was 50 μg/mL or a corresponding solvent volume for controls. […] Images were acquired at 0, 0.15, 0.5, 1, 2, 3, 4, 5, 6, 7, 24 and 48 hours, and the amount of compaction was measured with ImageJ.

[2] = system: Rho/ROCK pathway; assay: Real time PCR analysis of Rho/ROCK pathway gene expression; type: cell-based; settings: rabbit joint capsule fibroblasts in collagen gels; 50 μg/mL blebbistatin; 0, 5, 24 and 48 hours; versus blank PLGA particle control
Method: Inhibition of Rho/ROCK pathway in RJCFs by blebbistatin nanoparticle was studied using quantitative real-time PCR (qPCR) Two groups of collagen gels were prepared in the same way as described in the collagen gel compaction assay. One group of gels (n=3) was treated with 2.5 mg of blebbistatin nanoparticles dispersed in 50 μL of DMEM so that the final concentration of blebbistatin was 50 μg/mL. The other control group gels (n=3) were also treated in the same way but instead with blank PLGA particles. Measurements were made at four terminal time points of 0, 5, 24 and 48 hours. After each time point the gels were washed twice with DMEM and stored at −80° C. for qPCR analysis.
Total cell RNA was extracted with an RNeasy Mini Kit (Qiagen, Valencia, Calif., USA), by following the manufacturer's protocol. Cells were then homogenized (QIAshredder column, Qiagen), and using an RNeasy column, total RNA was eluted out. The quantity and the quality of the isolated RNA were measured from the absorbance at A260 nm and the ratio of A260/A280 respectively. […] Steady-state mRNA levels were normalized to 18s rRNA and calculated relative to untreated controls by “the relative quantitation using comparative CT” in Multiplex Reactions (PerkinElmer).

[3] = system: rabbit joint capsule fibroblasts; assay: Fluorescent microsphere displacement assay with time-lapse imaging; type: cell-based
Method: The effect of blebbistatin on cell ability to compact gels was analyzed by monitoring the displacement of fluorescent microspheres. Cell seeded collagen gels were prepared as described above with the addition of a suspension of fluorescent 4 μm microspheres to achieve a concentration of 5 million microspheres/mL. Approximately, 500 μL of this solution were then carefully added around a 6 mm polydimethysiloxane (PDMS) post in a circular PDMS mold with a 20 mm diameter attached to a 35 mm glass bottom Petri dish. This construct was prepared with the purpose of preventing movement of the gel during imaging, after release. Gels were then incubated at 37° C. for 30 minutes to allow polymerization. Once the gels had polymerized, DMEM supplemented with 10% FBS, 1% Penicillin/Streptomyocin, and 0.1% Amphoterecin B was added. After incubation for 24 hours, the gels were treated with either blebbistatin PLGA particles or with blank PLGA particles for 24 hours. Gels were carefully detached from the surrounding PDMS mold and were rinsed twice using DMEM. […] Microsphere displacements were quantified by use of a custom algorithm using digital image correlation to track the movement of individual particles from frame to frame.

[4] = Raman spectroscopy and differential scanning calorimetry of drug-loaded particles; type: physicochemical; settings: Raman shifts and DSC melting point unchanged after loading
Method: Confocal Raman spectroscopy was used to characterize the distribution of blebbistatin in the PLGA nanoparticles. Spectra of pure blebbistatin, pure PLGA, blank nanoparticles, and blebbistatin loaded nanoparticles were produced with the 488 nm line of an Ar+ laser (Coherent, Inova 70, 30 mW). After autoalignment of the instrument, the laser beam was focused on the samples using an inverted optical microscope equipped with a 50× objective lens. Spectra were recorded between 80 cm^−1 to 1300 cm^−1 at high resolution. Spectra were spatially resolved at each pixel by passing the backscattered image of the Ar+ laser through a pinhole of diameter 100 μm onto a cooled CCD camera.
Differential scanning calorimetry was employed to analyze the solid state and thermal properties of the nanoparticles. Approximately 2 mg of either lyophilized blank PLGA nanoparticles or drug-loaded PLGA nanoparticles were weighed and hermetically sealed into aluminum pans. An empty aluminum pan was used as a reference. Sample were heated from 25° C. to 300° C. at a rate of 10° C./min under a stream of nitrogen gas flow to produce thermograms for extracting the transition temperature (Tc) and enthalpy of transition (AH).

fibroblast morphology (time-lapse imaging) ([3]; fibroblasts in collagen gels, compared with untreated gels): more spherical fibroblasts
Structure (SMILES): Cc1ccc2c(c1)C(=O)C1(O)CCN(c3ccccc3)C1=N2 (centres unmarked) [blebbistatin, Blebbistatin]
gel area after compaction [1]: 87%±1% | RhoA, ROCK1 and ROCK2 gene expression (qPCR) [2]: initial increase in RhoA, ROCKI, and ROCK II genes treated with blebbistatin that then decrease to comparable levels as control | fluorescent microsphere displacements (cell force generation) ([3]; cell-seeded collagen gels treated 24 hours, compared with control gels): significantly lower | stability of the drug after loading into the particles [4]: stable and no significant physical/chemical changes occurred
